Earlier results on 2 molecules are cited in PMC6978833 (ACS Central Science, 2019).

The conditions of the series: N3 of base in TAT / CGC triplets.

`Cc1c[nH]c(=O)[nH]c1=O` [thymine]: the “pKa (N3 protonation)” value was approximately 10.

Consider `Nc1cc[nH]c(=O)n1` [cytosine], for which the “pKa (N3 protonation)” value was approximately 6.5.
